Test results: article PMC12577588 (2025)

System: telo24 DNA (DNA, G4) TTAGGGTTAGGGTTAGGGTTAGGG
Test: UV-vis titration
Settings: K+ 100 mM; 10 mM HEPES pH 7.4, 1 mM Na2EDTA; 5 μM porphyrin; error is SE

## C[n+]1ccc(-c2c3nc(c(-c4cc[n+](C)cc4)c4ccc([nH]4)c(-c4cc[n+](C)cc4)c4nc(c(-c5cc[n+](C)cc5)c5ccc2[nH]5)C=C4)C=C3)cc1
  Kd: 0.93 (0.18) μM
